Data published in US8669246B2, “Substituted amide compound” (Astellas Pharma Inc., priority 2009, dated 2014).

How the values were obtained:
human LPA1 = target: T1, human LPA1 (Homo sapiens, UniProt Q92633); test: Antagonistic action on human LPA1: inhibition of LPA-stimulated increase in intracellular calcium ion concentration in human LPA1-CHO cells; type: cell-based; conditions: LPA 100 nM, Fluo-4/FLIPR calcium signal
T1 construct: expressed in transfected cells
Description: Antagonistic Action of Compound of Formula (I) on Human LPA1
The antagonistic action on a human LPA 1 was evaluated with an index of an inhibitory action on the LPA-stimulated increase in intracellular calcium ion concentration, using human LPA 1-CHO cells [cells in which human LPA1 receptors are stably expressed in CHO (dhfr gene-deficient) cell lines].
Establishment of human LPA1-CHO cells was performed based on the basic genetic engineering techniques.
The established cells were maintained by passage in a nucleic acid-free α-MEM medium (Invitrogen) containing 10% FBS, 1% penicillin/streptomycin (Invitrogen), and 100 nM methotrexate, and before experiment, the medium was replaced with a medium that had been reduced to 1% of the […] concentration, then seeded in 96-well plates to 1.5×10e^5 cells/100 μL/well, and incubated overnight.
On the day of experiment, a 0.5 μM Fluo-4 solution [a solution prepared by adding 20 mM HEPES (Sigma), […] probenecid (Nacalai Tesque), 0.05% BSA, 0.5 μM Fluo-4 AM (Dojindo Laboratories), and 0.1% Pluronic […] (Molecular Probe Co.) to a Hanks Balanced Solt Solution (Invitrogen)] was added to the cells, and Fluo-4 was loaded on the cells by incubating for 2 hours at room temperature.
After loading Fluo-4, the Fluo-4 solution was replaced with a reaction solution [a solution obtained by adding 20 mM HEPES, […] probenecid, and 0.05% BSA to a Hanks Balanced Solt Solution], and then measurement was performed using a device for measuring an intracellular calcium concentration (FLIPR tetra, Molecular Devices Inc.).
A reaction solution in which the compound of the formula (I) (with a final concentration of 0.1 nM to 10 μM) had been dissolved was added to each of the wells, the signals were measured over time for 4 minutes, then a reaction solution in which LPA (final concentration 100 nM) had been dissolved was added thereto, and the signals were measured over time for 2 minutes. The difference between the maximum and minimum response during one minute from addition of LPA was calculated. The inhibitory activity was calculated, with a response when LPA only (not including the compound) was added was taken as 0% inhibition, and a response when a reaction solution not including both of the compound and LPA was added was taken as 100% inhibition. Then the 50% inhibitory concentration was calculated as an IC50 value (nM).
Human LPA1-CHO cells used in the present test were the cells with the same sequence as described in the pamphlet of International Publication WO 99/19513 were used. Further, Ex represents Example No. as denoted below.

[1] = test system: LPA-induced increase in urethral pressure; test: Inhibitory action on LPA-induced increase in urethral pressure in rats under anesthesia; type: in vivo, rat (male Wistar); conditions: Rattus norvegicus, 5 min; 0.1 mg/kg intravenous, LPA (1-oleoyl) 3 mg/kg iv after 5 minutes, anesthetized rats, vs solvent; read-out: Inhibitory rate
Description: Inhibitory Action of Compound of Formula (I) on LPA-Induced Increase in Urethral Pressure in Rats Under Anesthesia (with Intravenous Administration at 0.1 mg/kg) Male Wistar rats (Charles River, 9- to 12-week old) were anesthetized with urethane (1.2 g/kg ip), and held in the supine position on an operating table kept at 37° C. The lower abdominal portion was midline-incised and the bladder was thus exposed. A small portion of the bladder apex was incised, a microchip pressure transducer (Millar) was inserted antegrade, and then placed in the urethra, and the urethral pressure was recorded continuously. In addition, a cannula for administration of a drug was placed into the femoral vein. After about 1 hour of stabilization, the compound of formula (I) (0.1 mg/kg) was administered intravenously. After 5 minutes, LPA (1-oleoyl) was administered intravenously at 3 mg/kg, and the changes in the urethral pressure were recorded. The inhibitory rates (%) of the compound of the formula (I) on the LPA-stimulated increase in the urethral pressure compared with those after administration of the solvent of the compound of the formula (I) were recorded.

T1 sequence (Q92633 whole entry): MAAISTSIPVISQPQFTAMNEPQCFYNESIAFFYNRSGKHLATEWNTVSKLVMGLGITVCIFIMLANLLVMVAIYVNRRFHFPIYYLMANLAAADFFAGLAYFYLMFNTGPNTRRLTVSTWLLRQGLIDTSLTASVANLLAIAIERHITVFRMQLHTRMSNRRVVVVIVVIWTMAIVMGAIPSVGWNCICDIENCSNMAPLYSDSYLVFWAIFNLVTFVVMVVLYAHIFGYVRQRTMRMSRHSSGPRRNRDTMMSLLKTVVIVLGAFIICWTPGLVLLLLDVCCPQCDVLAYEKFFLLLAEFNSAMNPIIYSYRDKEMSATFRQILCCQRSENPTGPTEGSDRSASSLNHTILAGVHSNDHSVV

| Compound | melting point [°C] | IC50 (human LPA1) [nM] | inhibition in vivo at 0.1 mg/kg [1] [%] |
| --- | --- | --- | --- |
| COc1cc(C(=O)N(CCCc2ccccc2)Cc2csc(C(=O)NS(N)(=O)=O)n2)cc(OC)c1C [Example 62] | 173 to 175 | 11 |  |
| COc1cc(C(=O)N(CCCc2ccccc2)Cc2nc(C(=O)NS(N)(=O)=O)cs2)cc(OC)c1C [Example 69] | 147 to 150 | 8.8 | 33 |
| COc1cc(C(=O)N(CCCc2ccccc2)Cc2nc(C(=O)NS(N)(=O)=O)cs2)cc(OC)c1Br [Example 132] |  |  | 42 |
| COc1cc(C(=O)N(CCCc2ccccc2)Cc2nc(C(=O)NS(=O)(=O)NC(C)=O)cs2)cc(OC)c1C [Example 168, N-(acetylsulfamoyl)-2-{[(3,5-dimethoxy-4-methylbenzoyl)(3-phenylpropyl)amino]methyl}-1,3-thiazole-4-carboxamide] |  | 17 |  |
| COc1cc(C(=O)N(CCCc2ccccc2)Cc2nc(C(=O)NS(N)(=O)=O)cs2)cc(OC)c1C1CC1 [Example 131] | 147 to 149 | 7.2 | 38 |
| CNS(=O)(=O)NC(=O)c1nc(CN(CCCc2ccccc2)C(=O)c2cc(OC)c(C)c(OC)c2)cs1 [Example 63] |  |  | 28 |
| COc1ccc([C@@H](O)C(=O)N(CCCc2ccccc2)Cc2nc(C(=O)NS(C)(=O)=O)c(C)s2)c(F)c1 [Example 277] | 121 to 123 | 12 | 42 |
| COc1cc(C(=O)N(CCCc2ccccc2F)Cc2nc(C(=O)NS(N)(=O)=O)cs2)cc(OC)c1C [Example 113] | 145 to 146 | 12 |  |
| CNS(=O)(=O)NC(=O)c1csc(CN(CCCc2ccsc2)C(=O)c2cc(OC)c(C)c(OC)c2)n1 [Example 137] |  | 9.9 | 17 |
| COc1cc(C(=O)N(CCCc2ccc(C)o2)Cc2nc(C(=O)NS(N)(=O)=O)cs2)cc(OC)c1C [Example 111] |  | 6.6 | 56 |
| COc1cc(C(=O)N(CCCc2ccccc2)Cc2nc(C(=O)NS(N)(=O)=O)co2)cc(OC)c1C [Example 121] | 136 to 141 | 19 |  |
| COc1cc(C(=O)N(CCCc2ccccc2)Cc2nc(C(=O)NS(C)(=O)=O)cs2)cc(OC)c1C [Example 108] | 133 to 134 | 11 |  |
| C=Cc1c(OC)cc(C(=O)N(CCCc2ccccc2)Cc2nc(C(=O)NS(N)(=O)=O)cs2)cc1OC [Example 130] |  |  | 39 |
| COc1cc(C(=O)N(CCCc2ccc(Cl)s2)Cc2nc(C(=O)NS(N)(=O)=O)cs2)cc(OC)c1C [Example 110] | 154 to 156 | 11 |  |
| COc1cc(C(=O)N(CCCc2ccccc2)Cc2nc(C(=O)NS(=O)(=O)c3cccs3)cs2)cc(OC)c1C [Example 5, 2-{[(3,5-dimethoxy-4-methylbenzoyl)(3-phenylpropyl)amino]methyl}-N-(2-thienylsulfonyl)-1,3-thiazole-4-carboxamide] |  | 7.8 |  |
| COc1cc(C(=O)N(CCCc2ccccc2)Cc2nc(C(=O)NS(=O)(=O)Nc3ccccn3)cs2)cc(OC)c1C [Example 79] |  | 16 |  |
| COc1cc(C(=O)N(CCCc2ccccc2)Cc2nc(C(=O)NS(C)(=O)=O)c(C)s2)cc(OC)c1C [Example 109] | 128 to 131 | 22 |  |
| CCNS(=O)(=O)[N-]C(=O)c1csc(CN(CCCc2ccccc2)C(=O)c2cc(OC)c(C)c(OC)c2)n1.[K+] | 203 to 205 |  |  |
| CNS(=O)(=O)NC(=O)c1nc(CN(CCCc2ccccc2)C(=O)c2cc(OC)c(Cl)c(OC)c2)sc1Cl [Example 162] |  |  | 21 |
| COc1cc(C(=O)N(CCCc2ccccc2)Cc2nc(C(=O)NS(=O)(=O)CC(C)O)cs2)cc(OC)c1C (stereo not drawn) [Example 175] |  | 23 |  |
| COc1cc(C(=O)N(CCCc2cc(F)ccc2F)Cc2nc(C(=O)NS(N)(=O)=O)cs2)cc(OC)c1C [Example 115] |  | 16 |  |
| COc1cc(C(=O)N(CCCc2ccccc2)Cc2nc(C(=O)NS(=O)(=O)CCO)cs2)cc(OC)c1C [Example 167] |  | 12 | 35 |
| Cc1cc(C(=O)N(CCCc2ccccc2)Cc2nc(C(=O)NS(N)(=O)=O)c(Cl)s2)cc(C)c1O [Example 147] |  | 16 |  |
| COCc1c(OC)cc(C(=O)N(CCCc2ccccc2)Cc2nc(C(=O)NS(=O)(=O)NOC)c(C)s2)cc1OC [Example 161] | 151 to 153 |  |  |
| COc1cc(C(=O)N(CCCc2ccccc2F)Cc2nc(C(=O)NS(=O)(=O)N(C)C)cs2)cc(OC)c1C [Example 119] | 128 to 131 |  |  |
| COc1cc(C(=O)N(CCCc2ccccc2)Cc2ccc(C(=O)NS(N)(=O)=O)o2)cc(OC)c1C [Example 123] |  | 7.5 | 39 |

Second part, led by results:

| melting point [°C] | IC50 (human LPA1) [nM] | Compound | inhibition in vivo at 0.1 mg/kg [1] [%] |
| --- | --- | --- | --- |
| 118 to 120 |  | COc1ccc([C@@H](O)C(=O)N(CCCc2cccs2)Cc2nc(C(=O)NS(=O)(=O)N(C)C)c(C)s2)cc1 [Example 256] |  |
| 137 to 138 | 32 | COc1ccc([C@@H](O)C(=O)N(CCCc2ccccc2)Cc2nc(C(=O)NS(=O)(=O)C(C)C)c(C)s2)cc1 [Example 285] |  |
| 114 to 115 | 40 | COc1ccc(C2(C(=O)N(CCCc3cccc(F)c3)Cc3nc(C(=O)NS(=O)(=O)N(C)C)c(C)s3)CC2)nc1 [Example 208] | 14 |
| 123 to 125 | 65 | CCS(=O)(=O)NC(=O)c1nc(CN(CCCc2ccccc2)C(=O)[C@H](O)c2ccc(OC)cc2)sc1C [Example 266] | 15 |
| 219 to 221 |  | COc1ccc(C2(C(=O)N(CCCc3cccc(F)c3)Cc3nc(C(=O)[N-]S(=O)(=O)N(C)C)c(C)s3)CC2)nc1.[K+] |  |
|  | 22 | COc1ccc(C2(C(=O)N(CCCc3ccco3)Cc3nc(C(=O)NS(=O)(=O)N(C)C)c(C)s3)CC2)cc1 [Example 233] | 38 |
| 124 to 126 | 44 | CCS(=O)(=O)NC(=O)c1nc(CN(CCCc2cccs2)C(=O)[C@H](O)c2ccc(OC)cc2)sc1C [Example 272] |  |
| 111 to 112 |  | CCS(=O)(=O)NC(=O)c1nc(CN(CCCc2ccccc2)C(=O)[C@H](O)c2ccc(OC)cc2F)sc1C [Example 278] |  |
|  | 33 | COc1ccc(C2(C(=O)N(CCCc3ccc(C)o3)Cc3nc(C(=O)NS(=O)(=O)N(C)C)c(C)s3)CC2)nc1 [Example 200] | 31 |
| 125 to 126 |  | COc1ccc(C2(C(=O)N(CCCc3ccccc3)Cc3nc(C(=O)NS(=O)(=O)N(C)C)c(C)s3)CC2)nc1 [Example 31] |  |
| 110 to 112 | 33 | COc1ccc([C@@H](O)C(=O)N(CCCc2ccccc2)Cc2nc(C(=O)NS(=O)(=O)N(C)C)c(C)s2)cc1 [Example 290] |  |
| 178 to 179 |  | COc1ccc(C(O)C(=O)N(CCCc2ccccc2)Cc2nc(C(=O)NS(=O)(=O)N(C)C)c(C)s2)cn1 (stereo not drawn) [Example 28] |  |
| 112 to 113 |  | COc1ccc(C2(C(=O)N(CCCc3ccco3)Cc3nc(C(=O)NS(=O)(=O)N(C)C)c(C)s3)CC2)nc1 [Example 221] |  |
| 106 to 109 | 29 | CNS(=O)(=O)NC(=O)c1nc(CN(CCCc2cccs2)C(=O)[C@H](O)c2ccc(OC)cc2)sc1C [Example 283] |  |
